From patent publication US8536207B2, “Method for treating a keratoconjunctival disorder” (Santen Pharmaceutical Co., Ltd., priority 2005, dated 2013)

How the values were obtained:
[1] = test system: corneal damage in rats in which the exorbital lacrimal gland was removed; experiment: Test for therapeutic effect on corneal damage using rats in which the exorbital lacrimal gland was removed; type: in vivo, male SD rats; conditions: for Improvement ratio (%) of corneal damage: fluorescein staining score vs saline control
Method: 1. Test for Therapeutic Effect on Corneal Damage Using Rats in which the Exorbital Lacrimal Gland was Removed
Using male SD rats, corneal disorder models were produced in accordance with the method of Fujihara et al. (Invest. Ophthalmol. Vis. Sci. 42 (1): 96-100 (2001)). After the production of the corneal disorder models, the improvement ratio of corneal damage was evaluated by a method (Journal of the eye 21 (1): 87-90 (2004)) modified from the method of Miyata et al. (Japanese Review of Clinical Ophthalmology 48 (2): 183-188 (1994)).
Male SD rats were systemically anesthetized by an administration of Nembutal. Subsequently, the exorbital lacrimal gland of each rat was removed and a corneal damage was induced over a period of 2 months.
A physiological saline solution containing ebselen (25 μM) was instilled into both eyes 6 times a day for 14 days (one group consisting of 8 animals).
A physiological saline solution containing edaravone (200 μM) was instilled into both eyes 6 times a day for 14 days (one group consisting of 8 animals).
A physiological saline solution containing α-lipoic acid (200 μM) was instilled into both eyes 6 times a day for 14 days (one group consisting of 8 animals).
In a control group, physiological saline was instilled into both eyes 6 times a day for 14 days (one group consisting of 8 animals)
Fourteen days after the start of instillation, the damaged parts of the cornea were stained with fluorescein. For each of the upper, middle and lower parts of the cornea, the degree of fluorescein staining was evaluated by scoring according to the criteria shown below and the improvement ratio of corneal damage was calculated from the mean value of the total scores for each of the above-mentioned parts.
1: Scattered staining (punctate staining being separated)
2: Moderate staining (a part of punctate staining being adjacent)
3: Heavy staining (punctate staining being barely separated)
Incidentally, intermediate values (at intervals of 0.5) were set between the respective scores.
By taking the mean value of the scores for the control group (physiological saline) as a standard (improvement ratio: 0%) and according to the calculation equation shown below, the improvement ratios for the ebselen (25 μM) administration group and the edaravone (200 μM) administration group and α-lipoic acid (200 μM) administration group were calculated, respectively, which are shown in Table 1. Incidentally, the mean value of the scores is a mean of those of 8 cases in each group. Improvement ratio (%)={(control)−(administered compound)}/damage degree×100 Damage degree=(control)−(normal eye)

[2] = test system: corneal damage in senescence-accelerated mouse model P10 (SAMP10); experiment: Pharmacological test using SAMP10 (corneal damage, fluorescein staining); type: in vivo; conditions: for Score of fluorescein staining: mean±standard error, maximum 9 points
Method: 2. Pharmacological Test Using SAMP10
Using senescence-accelerated mouse model P10 (hereinafter referred to as SAMP10), an effect of ebselen on a corneal damage was evaluated in accordance with the method of Hirai, Shibagaki et al. (JP-A-2006-104913). Incidentally, as a control animal, SAMR1 with normal senescence was used.
SAMP10 develops a corneal disorder with aging. Accordingly, a corneal damage of female SAMP10 at 16 weeks of age (before a change caused by aging is observed) was evaluated, and then, administration of an ebselen solution or its vehicle was started. At 8 weeks after the start of administration (at 24 weeks of age), the same evaluation was carried out again. In the same manner, a corneal damage of female SAMR1 at 16 weeks of age was evaluated, and thereafter, administration of the above-mentioned vehicle was started. Then, at 8 weeks after the start of administration (at 24 weeks of age), the same evaluation was carried out again.
Ebselen suspensions obtained by suspending it in a 1% (w/v) methyl cellulose aqueous solution (prepared by dissolving methyl cellulose in ultrapure water) at a concentration of 0.45 mg/mL and 4.5 mg/mL respectively were orally administered to female SAMP10 once a day at a dose of 6.67 μL per g of body weight of mouse. The both administration groups were determined to be a 3 mg/kg group and a 30 mg/kg group, respectively. The administration was carried out 5 days a week (Mon, Tue, Wed, Thu, Fri) over a period of 8 weeks. As a control, a 1% (w/v) methyl cellulose aqueous solution was orally administered to SAMP10 in the same manner at a dose of 6.67 μL per g of body weight of mouse. Further, to the control animal, female SAMR1, a 1% (w/v) methyl cellulose aqueous solution was orally administered in the same manner. Incidentally, the number of animals in each group of SAMP10 is 22 eyes (11 mice), and the number of SAMR1 is 16 eyes (8 mice).
The damaged parts of the cornea of SAMP10 and SAMR1 were stained with fluorescein immediately before and at 8 weeks after the start of administration. For each of the upper, middle and lower parts of the cornea, the degree of fluorescein staining was evaluated by scoring according to the evaluation criteria described in “1. Test for therapeutic effect on corneal damage using rat models in which the exorbital lacrimal gland was removed”, and the scoring of the degree of corneal damage (a maximum score of 9 points) was carried out by obtaining the total scores for each of the above-mentioned parts.
Incidentally, the scores in the table are expressed as mean±standard error in each group.

[3] = 200 μM in physiological saline instilled into both eyes 6 times a day for 14 days

Compound | Improvement ratio (%) of corneal damage [1, 3] | Improvement ratio (%) of corneal damage ([1]; 25 μM in physiological saline instilled into both eyes 6 times a day for 14 days) | Improvement ratio compared with edaravone and α-lipoic acid ([1]; ebselen 25 μM vs comparators 200 μM, instillation for 14 days) | Staining score compared with the vehicle administration group of SAMP10 ([2]; 3 mg/kg and 30 mg/kg groups, 24 weeks of age, Dunnett's test p < 0.05) | Score of fluorescein staining ([2]; SAMP10, 3 mg/kg group, 16 weeks of age (immediately before start of administration)) | Score of fluorescein staining ([2]; SAMP10, 3 mg/kg oral once a day, 5 days a week for 8 weeks, 24 weeks of age) | Score of fluorescein staining ([2]; SAMP10, 30 mg/kg group, 16 weeks of age (immediately before start of administration)) | Score of fluorescein staining ([2]; SAMP10, 30 mg/kg oral once a day, 5 days a week for 8 weeks, 24 weeks of age)
O=C(O)CCCCC1CCSS1 (stereo in doubt) [α-Lipoic acid, (3R)-1,2-dithiolane-3-pentanoic acid] | 30.8% | – | – | – | – | – | – | –
O=c1c2ccccc2[se]n1-c1ccccc1 [Ebselen, 2-phenyl-1,2-benzisoselenazol-3(2H)-one] | – | 76.5% | more than twice as high | significantly decreased | 2.61 ± 0.38 | 2.95 ± 0.45 | 2.45 ± 0.30 | 2.68 ± 0.33
CC1=NN(c2ccccc2)C(=O)C1 [Edaravone, 3-methyl-1-phenyl-2-pyrazolin-5-one] | 36.9% | – | – | – | – | – | – | –
